Experimental data reported in patent publication EP3388419A1, “GLI1 INHIBITORS AND USES THEREOF” (Leadiant Biosciences SA, priority 2017, dated 2018).
Entries after “also recorded” stand apart in the source; their conditions may differ. Read-outs that look alike come from different tables or passages of the source.

Columns and labels:
Gli1 protein = experiment: Effect on Gli1 protein expression by Western blotting in SAG-stimulated NIH3T3 cells; type: cell-based, murine; parameters: key to Effect on Gli1 protein: +++: Gli1 protein level strongly reduced (almost abolished) at 24 and 48 h compared to DMSO control; ++: Gli1 protein level reduced (more than 50%) at 48 h compared to DMSO control; +: Gli1 protein level is weakly reduced (about 50%) at 48 h compared to DMSO control; conditions: compound 1 µM; for Effect on Gli1 protein: NIH3T3 cells stimulated with SAG (100nM), 24 or 48 h, compared to DMSO control; for Gli1 protein level: Figure 1, NIH3T3 cells, 48 h, reference GANT61 5 µM, result in words
Description: The effect of compounds on Gli1 protein expression was evaluated in HH-responsive murine NIH3T3 cells by Western blotting. Both Gli1 and Ptch1 are targets of the Gli, and Gli1 in particular is considered the best read-out of HH signaling activity.
Briefly, NIH3T3 were stimulated for 48 h with 3-chloro-N-[trans-4-(methylamino)cyclohexyl]-N-[[3-(4-pyridinyl)phenyl]methyl]-benzo[b]thiophene-2-carboxamide (SAG) (100nM) to activate the endogenous HH pathway, and treated for 24 or 48 h with each compound (1 µM). NIH3T3 cells were lysed and subjected to Western blotting using a specific anti-GLI1 antibody. The effect of each compound was compared to that of GANT61 (5 µM), a well known Gli1/2 inhibitor (Lauth M. et al. PNAS 2007, 104, 8455).

[1] = tested on: A375 (metastatic melanoma cell line); experiment: Cancer cell proliferation, MTT-based assay, A375; conditions: Homo sapiens, A-375, A375, 72 h
Description: (§1) The effects on cancer cell proliferation were tested for those compounds shown to be able to reduce Gli1 protein level in NIH3T3 cells. Two different commercial cancer cell lines were used: A375 (metastatic melanoma cell line) and DAOY (medulloblastoma cell line).
(§2) To test the effects on cancer cell proliferation, both cell types were treated for 72 h with increasing doses (10 nM, 50 nM, 100 nM, 250 nM, 500 nM, 1 µM, 5 µM) of each compound and counted at the end of the treatment with an MTT-based assay. IC50 was calculated by GraphPad Prism software.

[2] = tested on: DAOY (medulloblastoma cell line); experiment: Cancer cell proliferation, MTT-based assay, DAOY; conditions: Homo sapiens, 72 h
Description: as §1, §2

[3] = Table 3, commercially available compounds
[4] = Table 3, commercially available compounds, read-out: Effect on proliferation A375 (IC50; nM)
[5] = Table 3, commercially available compounds, read-out: Effect on proliferation DAOY (IC50; nM)
[6] = Table 2, new compounds, read-out: Effect on proliferation A375 (IC50; nM)
[7] = Table 2, new compounds, read-out: Effect on proliferation DAOY (IC50; nM)
[8] = Figure 2 dose-response curve, read-out: IC50

Row | SMILES | Effect on Gli1 protein (Gli1 protein; [3]) | IC50 [1, 4] [nM] | IC50 [2, 5] [nM] | Gli1 protein level (Gli1 protein) | Effect on Gli1 protein (Gli1 protein; Table 2, new compounds) | IC50 [1, 6] [nM] | IC50 [2, 7] [nM] | IC50 [1, 8] [nM] | IC50 [2, 8] [nM]
1 | COc1ccc(C(NC(C)=O)c2cc(Cl)c3cccnc3c2O)cc1OC (stereo not shown) [SST0687AA1, N-[(5-Chloro-8-hydroxy-quinolin-7-yl)-(3,4-dimethoxy-phenyl)-methyl]-acetamide] | +++ | 300 to 1000 | 300 to 1000 | – | – | – | – | – | –
2 | CCCC(=O)NC(c1ccc(Cl)cc1Cl)c1cc(Cl)c2cccnc2c1O (stereo not shown) [SST0689AA1, N-[(5-Chloro-8-hydroxy-quinolin-7-yl)-(2,4-dichlorophenyl)-methyl]-butyramide] | +++ | 300 to 1000 | 300 to 1000 | – | – | – | – | – | –
3 | COc1ccc(C(NC(=O)C(C)C)c2cc(Cl)c3cccnc3c2O)cc1OC (stereo not shown) [SST0769AA1, Propanamide, N-[(5-chloro-8-hydroxy-7-quinolinyl)(3,4-dimethoxyphenyl)methyl]-2-methyl-] | ++ (Gli1 protein level reduced (more than 50%) at 48 h compared to DMSO control) | 300 to 1000 | 300 to 1000 | – | – | – | – | – | –
4 | CCCC(=O)NC(c1ccc(N(CC)CC)cc1)c1cc(Cl)c2cccnc2c1O (stereo not shown) [SST0771AA1, Butanamide, N-[(5-chloro-8-hydroxy-7-quinolinyl)[4-(diethylamino)phenyl]methyl]-] | +++ | 300 to 1000 | 300 to 1000 | – | – | – | – | – | –
5 | CCCC(=O)NC(c1ccc(C)cc1)c1cc(Cl)c2cccnc2c1O (stereo not shown) [SST0773AA1, Butanamide, N-[(5-chloro-8-hydroxy-7-quinolinyl)(4-methylphenyl)methyl]-] | + | 300 to 1000 | 300 to 1000 | – | – | – | – | – | –
6 | CCCCC(=O)NC(c1ccc(C(C)C)cc1)c1cc(Cl)c2cccnc2c1O (stereo not shown) [SST0774AA1, Pentanamide, N-[(5-chloro-8-hydroxy-7-quinolinyl)[4-(1-methylethyl)phenyl]methyl]-] | +++ | ≤ 300 | ≤ 300 | – | – | – | – | – | –
7 | CCCC(=O)NC(c1ccccc1Cl)c1cc(Cl)c2cccnc2c1O (stereo not shown) [SST0775AA1, Butanamide, N-[(5-chloro-8-hydroxy-7-quinolinyl)(2-chlorophenyl)methyl]-] | + | 300 to 1000 | 300 to 1000 | – | – | – | – | – | –
8 | CCCC(=O)NC(c1ccc(Cl)cc1Cl)c1ccc2cccnc2c1O (stereo not shown) [SST0776AA1, Butanamide, N-[(2,4-dichlorophenyl)(8-hydroxy-7-quinolinyl)methyl]-] | +++ | ≤ 300 | ≤ 300 | – | – | – | – | – | –
9 | CCCCC(=O)NC(c1ccc(OC)c(OC)c1)c1ccc2cccnc2c1O (stereo not shown) [SST0777AA1, Pentanamide, N-[(3,4-dimethoxyphenyl)(8-hydroxy-7-quinolinyl)methyl]] | +++ | 300 to 1000 | 300 to 1000 | – | – | – | – | – | –
10 | Clc1cc2c(c3ncccc13)OCN(CCC1=CCCCC1)C2 [SST0791AA1, 2H-Pyrido[3,2-h]-1,3-benzoxazine, 6-chloro-3-[2-(1-cyclohexen-1-yl)ethyl]-3,4-dihydro-] | ++ (Gli1 protein level reduced (more than 50%) at 48 h compared to DMSO control) | ≤ 300 | ≤ 300 | – | – | – | – | – | –
11 | Clc1cc2c(c3ncccc13)OCN(CCCN1CCOCC1)C2 [SST0792AA1, 2H-Pyrido[3,2-h]-1,3-benzoxazine, 6-chloro-3,4-dihydro-3-[3-(4-morpholinyl)propyl]-] | + | ≤ 300 | ≥ 1000 | – | – | – | – | – | –
12 | CCCCN1COc2c(cc(Cl)c3cccnc23)C1 [SST0793AA1, 2H-Pyrido[3,2-h]-1,3-benzoxazine, 3-butyl-6-chloro-3,4-dihydro-] | ++ (Gli1 protein level reduced (more than 50%) at 48 h compared to DMSO control) | 300 to 1000 | 300 to 1000 | – | – | – | – | – | –
13 | Clc1cc2c(c3ncccc13)OCN(CCc1ccccc1)C2 [SST0794AA1, 2H-Pyrido[3,2-h]-1,3-benzoxazine, 6-chloro-3,4-dihydro-3-(2-phenylethyl)-] | ++ (Gli1 protein level reduced (more than 50%) at 48 h compared to DMSO control) | ≤ 300 | ≤ 300 | – | – | – | – | – | –
14 | c1ccc(CCN2COc3c(ccc4cccnc34)C2)cc1 [SST0823AA1, 3-phenethyl-3,4-dihydro-2H-[1,3]oxazino[5,6-h]quinoline] | – | – | – | drastic reduction of Gli1 protein level; also recorded: abolish Gli1 protein level | +++ | ≤ 300 | ≤ 300 | – | –
15 | O=C1Oc2c(ccc3cccnc23)C(c2ccc(Cl)cc2Cl)N1CCc1ccccc1 (stereo not shown) [SST0826AA1, 4-(2,4-dichlorophenyl)-3-phenethyl-3,4-dihydro-2H-[1,3]oxazino[5,6-h]quinolin-2-one] | – | – | – | slight reduction in Gli1 protein level | – | – | – | – | –
16 | Oc1c(C(NCCc2ccccc2)c2ccc(Cl)cc2Cl)ccc2cccnc12 (stereo not shown) [SST0827AA1, 7-((2,4-dichlorophenyl)(phenethylamino)methyl)quinolin-8-ol] | – | – | – | drastic reduction of Gli1 protein level; also recorded: abolish Gli1 protein level | +++ | ≤ 300 | ≤ 300 | – | –
17 | Fc1cnc2c3c(ccc2c1)CN(CCc1ccccc1)CO3 [SST0891AA1, 8-fluoro-3-phenethyl-3,4-dihydro-2H-[1,3]oxazino[5,6-h]quinoline] | – | – | – | comparable to that obtained with GANT61 | + | ≥ 1000 | ≥ 1000 | – | –
18 | c1cnc2c3c(ccc2c1)CN(C1CCCCC1)CO3 [SST0892AA1, 3-cyclohexyl-3,4-dihydro-2H-[1,3]oxazino[5,6-h]quinoline] | – | – | – | drastic reduction of Gli1 protein level; also recorded: abolish Gli1 protein level | +++ | ≤ 300 | 300 to 1000 | 300 | 500
19 | c1ccc2c(c1)CCC(N1COc3c(ccc4cccnc34)C1)C2 (stereo not shown) [SST0893AA1, 3-(1,2,3,4-tetrahydronaphthalen-2-yl)-3,4-dihydro-2H-[1,3]oxazino[5,6-h]quinoline] | – | – | – | – | + | 300 to 1000 | 300 to 1000 | – | –
20 | COc1ccc(CN2COc3c(ccc4cccnc34)C2)cc1 [SST0910AA1, 3-(4-methoxybenzyl)-3,4-dihydro-2H-[1,3]oxazino[5,6-h]quinoline] | – | – | – | – | + | 300 to 1000 | 300 to 1000 | – | –
21 | c1cnc2c3c(ccc2c1)CN(CC1CCCCC1)CO3 [SST0912AA1, 3-(cyclohexylmethyl)-3,4-dihydro-2H-[1,3]oxazino[5,6-h]quinoline] | – | – | – | – | + | 300 to 1000 | ≥ 1000 | – | –
22 | c1cnc2c3c(ccc2c1)CN(C1CCCCCC1)CO3 [SST0913AA1, 3-cycloheptyl-3,4-dihydro-2H-[1,3]oxazino[5,6-h]quinoline] | – | – | – | – | + | 300 to 1000 | ≥ 1000 | – | –
